In brackets after ≈: the same amount, converted by molar mass.
Columns and labels:
FIV [1] = details: FIV-infected cats, Hartmann et al. 1998; cited from earlier work
FIV-Ut113 = assay: Inhibition of FIV replication in CrFK cells co-infected with FeLV and FIV (p24 ELISA and RT-qPCR); type: cell-based; details: CrFK cells co-infected with FeLV and FIV-Ut113, six days; mean ± SD of three independent assays
Experimental: (§1) The compounds were dissolved in a 0.05 N sodium hydroxide solution at a concentration of 10 mg/ml. Reference compounds PMEDAP and PMEA were dissolved in a sodium bicarbonate buffer at a concentration of 10 mg/ml.
(§2) Crandell Reese Feline kidney (CrFK) cells were grown in Dulbecco minimum essential medium (DMEM, Life Technologies) containing 1% sodium bicarbonate (Life Technologies) and 5% fetal calf serum (FCS, Biochrom). In a 96-well plate 5000 CrFK cells were seeded and incubated for 24 h at 37° C. in a humid atmosphere containing 5% CO2. Subsequently cells were washed with 100 μl phosphate buffered saline (PBS) containing 50 μg/ml DEAE-dextran and co-infected with 100 CCID50 FeLV and 100 CCID50 FIV-Ut113 in presence of increasing doses of the compounds (0.4; 2; 10 and 50 μg/ml). After 2 h of incubation allowing the virus to enter the cells, the supernatant was removed and the cells were washed with PBS. […] The cells were incubated for six days when viral supernatant was collected and analyzed by ELISA for FeLV p27 and FIV p24 antigen production and real time RT-qPCR for FeLV and FIV RNA production. […] Subsequently the amount of FIV p24 was detected by a monoclonal biotinylated antibody 5E6D11 followed by a colorimetric reaction which is based on extravidin peroxidase (Sigma) and OPD substrate (Sigma).

FIV and FeLV = assay: Treatment of cats naturally co-infected with FIV and FeLV; type: in vivo; details: cat co-infected with FIV and FeLV, pre versus post treatment (FIG. 2); no other treatment
Experimental: The compounds were dissolved in an appropriate aqueous buffered sodium hydroxide solution (at concentration ranging between 50 and 250 mg/ml and close to neutral pH conditions (pH between 6 and 9). The formulated compounds were administered via the subcutaneous route at least once weekly at total dose rates ranging between 10 and 175 mg/kg per week. Treatment duration was between 1 week and 3 months.
FIV and FeLV, as retroviruses, reverse transcribe their viral RNA genome into proviral DNA which is subsequently inserted into the genome of its host. […] Reduction of viral load is important in controlling FIV/FeLV infection in the cat. […] The graph in FIG. 2 represents the viral load pre and post treatment with the compounds in a cat co-infected with FIV and FeLV. No other treatment was given concomitantly.

FeLV [2] = assay: Inhibition of FeLV replication in CrFK cells co-infected with FeLV and FIV (p27 ELISA and RT-qPCR); type: cell-based; details: CrFK cells co-infected with FeLV and FIV-Ut113, six days; mean ± SD of three independent assays
Experimental: as §1, §2

FeLV [3] = assay: Inhibition of FeLV replication in CrFK cell culture (p27 ELISA and RT-qPCR); type: cell-based; details: CrFK cells, 100 CCID50 FeLV, six days, mean ± SD of three independent assays
Experimental: The compounds were dissolved in a 0.05 N sodium hydroxide solution at a concentration of 10 mg/ml. Crandell Reese Feline kidney (CrFK) cells were grown in Dulbecco minimum essential medium (DMEM, Life Technologies) containing 1% sodium bicarbonate (Life Technologies) and 5% fetal calf serum (FCS, Biochrom). In a 96-well plate 5000 CrFK cells were seeded and incubated for 24 h at 37° C. in a humid atmosphere containing 5% CO2. Subsequently cells were washed with 100 μl phosphate buffered saline (PBS) containing 50 μg/ml DEAE-dextran and inoculated with 100 CCID50 FeLV in presence of increasing doses of the compounds (0.4; 2; 10 and 50 μg/ml). After 2 h of incubation allowing the virus to enter the cells, the supernatant was removed and the cells were washed with PBS. DMEM including 5% FCS and containing increasing doses of the compounds were added to the infected cells. Infected cells without compounds were included as positive controls (virus control) and uninfected cells were included as negative controls (cell control). The cells were incubated for six days when viral supernatant was collected and analyzed by enzyme-linked immunosorbent assay (ELISA) for FeLV p27 antigen production and real time RT-qPCR for FeLV RNA production. […]

FeLV [4] = assay: Treatment of cats naturally infected with FeLV; type: in vivo, cat
FIV [5] = assay: Treatment of clinically ill cats naturally infected with FIV; type: in vivo, cat
Experimental: The compounds were dissolved to a concentration ranging between 50 and 250 mg/mL in an appropriate aqueous buffered sodium hydroxide solution close to neutral pH conditions (pH between 6 and 9).
The formulated compounds were administered via the subcutaneous route at least once weekly at total dose rates ranging between 10 and 175 mg/kg per week. Treatment duration was between 1 week and 3 months.
The results of the treatment of cats with specific symptoms are discussed below. • Cats with oral signs. • Oral signs can present themselves as, but are not limited to, stomatitis, gingivitis, faucitis, glossitis, periodontitis, gingivostomatitis, ulcerations of the tonsils and tongue, salivation etc. […] Spontaneous bleeding was no longer observed and the bloody red inflammation diminished to a slightly pinkish observation. No other treatment was given concomitantly. • Cats with high viral load • FIV, as a retrovirus, reverse transcribes its viral RNA genome into proviral DNA which is subsequently inserted into the genome of its host. […] Reduction of viral load is important in controlling FIV infection in the cat. […] The graphs in FIGS. 1A, B and C represent the viral load pre and post treatment with the compounds in three different cats. No other treatment was given concomitantly. • Lethargic and emaciated cat, with severe weight loss • The FIV-positive cat was presented to the veterinarian with the following clinical signs: lethargy, emaciation, difficulty to walk, unable to jump up/off a chair, no desire to go outdoors, prolonged sleeping patterns. Prognosis was to euthanize the cat. • Treatment with the compounds was initiated and within a matter of weeks, the cat returned to normal, gained weight (0.6 kg), walked and played around, stayed outdoors for several consecutive days. […] No other treatment was given concomitantly. • Cat with lymphadenopathy (swollen/enlarged lymph nodes) • A male FIV-positive cat with swollen Lnn. poplitei (score 4; severity is scored on a scale from 0 to 10 with 0 representing a normal clinical picture and 10 being the most severe manifestation) was treated with the compounds. Within two weeks the swelling went down to a score of 2. At the end of the 6-week treatment period with the compounds a score of 1 was noted; 0 representing a normal clinical picture. […] Before treatment the Lnn. poplitei were swollen (score 2). Two weeks into treatment the lymphnodes returned to normal (score 0) which was maintained throughout the 6-week treatment period with the compounds. • Similar observations were made for two FIV-positive cats. When treatment was initiated the Lnn. mandibulares were swollen (score 2 and 3, respectively). The returned to normal (score 0) by the end of the 6-week treatment with the compounds. • Cat with inflammation of the eye • A female FIV-positive cat suffered from chronic inflammation of the eye before treatment with the compounds was initiated despite concurrent antibacterial treatment. […] No other treatment was given concomitantly. One week following treatment the cat was able to sit up straight and eat on its own. Treatment was continued for another four weeks after which the cat was able to walk, climb up and down stairs, and eat on its own. […] The Karnofsky's score has proven its validity in cats to assess and compare the efficacy of antiviral compounds (Hartmann et al., J Acquir Immune Defic Syndr Hum Retrovirol 1998). Table 4 summarizes the Karnofsky's score of two FIV-positive cats before, during and post treatment with the compounds. No other treatment was given concomitantly.

[6] = FIV-positive cat A, 50% before treatment
[7] = FIV-positive cat B, 30.5% before treatment

In the case of `Nc1ncnc2c1ncn2C[C@@H](CF)OCP(=O)(O)O` [FPMPA, (S)-9-(3-fluoro-2-phosphonylmethoxypropyl)adenine], the “Effect on FIV load” value (FIV [1]) is given as “reduced the FIV load” and the “Improvement in Karnofsky's score” value (FIV [1]) is given as 3.8%.
For `Nc1ncnc2c1ncn2CCOCP(=O)(O)O` [PMEA, 9-(2-phosphonylmethoxyethyl)adenine, reference compound], the “Effect on FIV load” value (FIV [1]) is listed as “did not decrease the FIV load” and the “Improvement in Karnofsky's score” value (FIV [1]) is listed as 10%.
For `CC(Cn1cnc2c(N)nc(N)nc21)OCP(=O)(O)O` (centres unmarked) [R-PMPDAP, 9-(2-phosphonylmethoxypropyl)-2,6-diaminopurine], the “EC50 FIV ELISA (p24)” value (FIV-Ut113) was 0.332 ± 0.035 µg/mL (≈ 1.1 µM), the “EC50 FIV RT-qPCR” value (FIV-Ut113) was 0.258 ± 0.024 µg/mL (≈ 0.854 µM) and the “Viral load (FIV/FeLV virions per mL plasma)” value (FIV and FeLV) was “significantly reduce the viral load”. The “EC50 FeLV ELISA (p27)” value (FeLV [2]) was 0.062 ± 0.010 µg/mL (≈ 0.205 µM), the “EC50 FeLV RT-qPCR” value (FeLV [2]) was 0.095 ± 0.050 µg/mL (≈ 0.314 µM) and the “EC50 of FeLV replication, RT-qPCR” value (FeLV [3]; FeLV RNA in supernatant) was 0.039 ± 0.024 µg/mL. The “EC50 of FeLV replication, p27 ELISA” value (FeLV [3]; p27 antigen in supernatant) was 0.030 ± 0.006 µg/mL, the “FeLV viral load after treatment” value (FeLV [4]; female FeLV-positive viremic cat, RT-qPCR, decreased from 15500) was 3200 FeLV virions per mL plasma and the “Karnofsky's score at the end of the 3-week treatment period” value (FeLV [4]; male FeLV-positive cat with clinical signs, 58.5% before treatment) was 80%. For the same compound, the “FeLV associated clinical signs following treatment” value (FeLV [4]; male FeLV-positive cat with oral inflammation, lymphadenopathy, diarrhea) was “the clinical signs ameliorated”, the “Karnofsky's score, 1 month post cessation of treatment” value (FIV [5]; [6]) was 90% and the “Karnofsky's score, during treatment” value (FIV [5]; [6]) was 70%. For the same compound, the “Karnofsky's score, end of treatment” value (FIV [5]; [6]) was 90%, the “Karnofsky's score, 1 month post cessation of treatment” value (FIV [5]; [7]) was 35% and the “Karnofsky's score, during treatment” value (FIV [5]; [7]) was 50%. The “Karnofsky's score, end of treatment” value (FIV [5]; [7]) was 50%, the Stomatitis upon treatment (FIV [5]; FIV-positive cat with severe caudal stomatitis and buccostomatitis, subcutaneous, 10-175 mg/kg per week, no other treatment) was “the stomatitis decreased significantly” and the Gingivitis upon treatment (FIV [5]; FIV-positive cat with severe gingivitis with spontaneous bleeding, subcutaneous, no other treatment) was “the gingivitis decreased significantly”. For the same compound, the “Viral load (FIV virions per mL plasma)” value (FIV [5]; FIV-positive cats, pre versus post treatment, three cats (FIG. 1A, B, C)) was “significantly reduce the viral load”, the “Chronic inflammation of the eye following treatment” value (FIV [5]; female FIV-positive cat, concurrent antibacterial treatment) was “on its way to full recovery” and the “Swelling score of Lnn. poplitei” value (FIV [5]; female FIV-positive cat, score 2 before treatment, scale 0 to 10, two weeks into treatment, maintained throughout 6 weeks) was 0. For the same compound, the Weight gained (FIV [5]; lethargic, emaciated FIV-positive cat with severe weight loss, within a matter of weeks) was 0.6 kg, the General condition (FIV [5]; lethargic, emaciated FIV-positive cat, prognosis was to euthanize, within a matter of weeks) was “general condition returned to normal” and the “Swelling score of Lnn. poplitei” value (FIV [5]; male FIV-positive cat, score 4 before treatment, scale 0 to 10, end of the 6-week treatment period) was 1. For the same compound, the “Swelling score of Lnn. poplitei” value (FIV [5]; male FIV-positive cat, score 4 before treatment, scale 0 to 10, within two weeks) was 2, the “Neurological symptoms (acute paresis of left front and hind legs)” value (FIV [5]; male FIV-positive cat, shortly after five weeks of treatment, no other treatment) was “A full recovery was observed” and the “Feces (chronic daily diarrhea)” value (FIV [5]; male FIV-positive cat, within two weeks) was “returned to normal within two weeks”. For the same compound, the “Swelling score of Lnn. mandibulares” value (FIV [5]; two FIV-positive cats, score 2 and 3 at start, scale 0 to 10, end of the 6-week treatment) was 0.
